Measured values published in patent US20250361230A1, “LATS Inhibitors and Uses Thereof” (The USA, as Represented by the Secretary, Dept. of Heath …, priority 2022, published 2025).
Where two headings read alike, the source gives them in different places.

Legend:
Type in all cases: biochemical
LATS1 = molecular target: T1, LATS1 (Homo sapiens, UniProt O95835); assay: RBC HotSpot kinase assay (33P-ATP, P81 filter-binding), LATS1; details: read-out: LATS1 IC50
T1 sequence (O95835 1-1130): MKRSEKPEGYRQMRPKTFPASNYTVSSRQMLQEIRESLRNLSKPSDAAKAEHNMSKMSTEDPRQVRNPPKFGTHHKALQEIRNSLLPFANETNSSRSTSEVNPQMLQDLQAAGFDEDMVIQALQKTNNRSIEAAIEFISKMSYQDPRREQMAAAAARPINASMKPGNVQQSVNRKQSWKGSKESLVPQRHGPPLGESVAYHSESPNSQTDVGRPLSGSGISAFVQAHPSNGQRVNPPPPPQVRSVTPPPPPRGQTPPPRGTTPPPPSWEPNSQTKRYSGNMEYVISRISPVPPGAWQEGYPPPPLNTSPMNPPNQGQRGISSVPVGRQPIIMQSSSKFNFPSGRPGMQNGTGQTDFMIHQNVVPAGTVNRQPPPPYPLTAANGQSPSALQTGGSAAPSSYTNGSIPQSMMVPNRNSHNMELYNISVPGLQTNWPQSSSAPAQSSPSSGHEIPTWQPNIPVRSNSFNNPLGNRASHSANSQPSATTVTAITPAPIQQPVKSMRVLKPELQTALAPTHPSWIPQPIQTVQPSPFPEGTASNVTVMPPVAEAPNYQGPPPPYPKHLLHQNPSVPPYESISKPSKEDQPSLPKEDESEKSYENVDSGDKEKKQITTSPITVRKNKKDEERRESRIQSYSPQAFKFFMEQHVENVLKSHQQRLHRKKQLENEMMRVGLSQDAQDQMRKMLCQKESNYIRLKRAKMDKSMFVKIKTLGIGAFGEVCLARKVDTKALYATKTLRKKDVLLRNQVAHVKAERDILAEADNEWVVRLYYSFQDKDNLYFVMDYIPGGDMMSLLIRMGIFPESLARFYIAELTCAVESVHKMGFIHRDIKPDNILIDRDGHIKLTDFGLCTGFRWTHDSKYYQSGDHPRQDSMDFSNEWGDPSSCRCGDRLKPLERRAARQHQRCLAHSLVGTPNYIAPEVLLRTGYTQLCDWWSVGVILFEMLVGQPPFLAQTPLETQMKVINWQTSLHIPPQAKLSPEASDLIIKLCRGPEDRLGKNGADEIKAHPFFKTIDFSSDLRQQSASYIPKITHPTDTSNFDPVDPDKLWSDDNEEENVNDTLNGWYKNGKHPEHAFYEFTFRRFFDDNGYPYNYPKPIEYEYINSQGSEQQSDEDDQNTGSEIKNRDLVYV
Summary of the method: (§1)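 Substrate in fresh buffer receives cofactors, then kinase, then compound in DMSO for a 20 min room-temperature preincubation. Reactions start with 33P-ATP and run 2 h; phosphorylation is read by P81 filter binding, and IC50 comes from a 10-point curve.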

AKT = AKT (Homo sapiens, UniProt P31749); assay: RBC HotSpot kinase assay (33P-ATP, P81 filter-binding), AKT; details: read-out: AKT IC50
Chain of AKT (P31749 whole entry): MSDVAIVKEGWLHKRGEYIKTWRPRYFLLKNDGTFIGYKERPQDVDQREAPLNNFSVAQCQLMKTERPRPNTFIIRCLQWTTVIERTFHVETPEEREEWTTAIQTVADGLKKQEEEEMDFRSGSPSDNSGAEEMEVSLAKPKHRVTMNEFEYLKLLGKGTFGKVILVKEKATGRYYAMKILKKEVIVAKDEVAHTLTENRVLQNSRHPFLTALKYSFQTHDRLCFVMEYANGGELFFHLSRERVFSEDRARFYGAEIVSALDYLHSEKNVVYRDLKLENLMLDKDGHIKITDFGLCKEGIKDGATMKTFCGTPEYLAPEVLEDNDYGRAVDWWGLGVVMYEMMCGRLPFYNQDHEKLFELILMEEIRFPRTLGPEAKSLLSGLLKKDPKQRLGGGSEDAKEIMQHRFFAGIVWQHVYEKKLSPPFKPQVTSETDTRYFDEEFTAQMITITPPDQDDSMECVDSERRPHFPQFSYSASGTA
Summary of the method: as §1

LATS2 = molecular target: T2, LATS2 (Homo sapiens, UniProt Q9NRM7); assay: RBC HotSpot kinase assay (33P-ATP, P81 filter-binding), LATS2; details: read-out: LATS2 IC50
T2 sequence (Q9NRM7 1-1088): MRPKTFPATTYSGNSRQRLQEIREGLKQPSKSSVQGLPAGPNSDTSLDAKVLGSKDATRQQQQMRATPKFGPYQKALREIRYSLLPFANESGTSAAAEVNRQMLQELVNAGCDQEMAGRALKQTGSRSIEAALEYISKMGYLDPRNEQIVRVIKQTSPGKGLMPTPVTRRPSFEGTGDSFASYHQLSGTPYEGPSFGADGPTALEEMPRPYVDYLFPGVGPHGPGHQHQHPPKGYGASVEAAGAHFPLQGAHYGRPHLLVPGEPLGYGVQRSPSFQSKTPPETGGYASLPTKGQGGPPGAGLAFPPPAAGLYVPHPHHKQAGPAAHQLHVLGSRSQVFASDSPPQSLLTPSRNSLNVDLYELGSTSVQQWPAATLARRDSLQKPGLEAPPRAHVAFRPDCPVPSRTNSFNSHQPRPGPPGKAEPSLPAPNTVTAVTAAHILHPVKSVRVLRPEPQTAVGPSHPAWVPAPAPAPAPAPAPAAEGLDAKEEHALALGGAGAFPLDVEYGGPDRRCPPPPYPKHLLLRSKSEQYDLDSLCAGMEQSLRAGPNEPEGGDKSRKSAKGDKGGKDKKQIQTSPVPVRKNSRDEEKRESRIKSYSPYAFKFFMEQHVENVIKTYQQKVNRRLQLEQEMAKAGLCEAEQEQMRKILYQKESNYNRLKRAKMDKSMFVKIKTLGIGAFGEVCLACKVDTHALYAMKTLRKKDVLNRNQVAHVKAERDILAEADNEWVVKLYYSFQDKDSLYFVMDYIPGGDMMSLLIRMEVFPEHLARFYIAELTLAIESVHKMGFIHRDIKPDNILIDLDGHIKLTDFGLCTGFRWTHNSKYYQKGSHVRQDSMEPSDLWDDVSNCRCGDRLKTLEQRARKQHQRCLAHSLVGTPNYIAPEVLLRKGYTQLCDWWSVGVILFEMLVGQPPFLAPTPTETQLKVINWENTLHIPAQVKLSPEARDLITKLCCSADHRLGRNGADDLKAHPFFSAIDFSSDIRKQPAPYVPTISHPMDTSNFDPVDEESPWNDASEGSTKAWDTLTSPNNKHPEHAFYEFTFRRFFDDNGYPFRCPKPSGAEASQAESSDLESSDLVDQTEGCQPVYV
Summary of the method: as §1

[1] = Table 28, biochemical kinase assay
[2] = Table 32, biochemical kinase assay

Row | Compound | IC50 (LATS1; [1]) [nM] | IC50 (AKT; [1]) [nM] | IC50 (LATS2; [1]) [nM] | IC50 (LATS1; [2]) [nM] | IC50 (AKT; [2]) [nM] | IC50 (LATS2; [2]) [nM]
1 | Cc1cc(-c2ccnc3[nH]cc(F)c23)ncc1[C@@]1(O)[C@H](C)CN(Cc2ccncc2)C[C@@H]1C [Compound 52, (3R,4s,5S)-4-(6-(3-fluoro-1H-pyrrolo[2,3-b]pyridin-4-yl)-4-methylpyridin-3-yl)-3,5-dimethyl-1-(pyridin-4-ylmethyl)piperidin-4-ol] | 2210 | > 10000 | 5080 |  |  | 
2 | O=C([C@@H]1CCCN1)N1CCC(O)(c2ccc(-c3ccnc4[nH]cc(F)c34)cc2)CC1 [Compound 143, (S)-3-fluoro-4-(4-(4-hydroxy-1-prolylpiperidin-4-yl)phenyl)-1H-pyrrolo[2,3-b]pyridine] | 26 | 1460 | 12 |  |  | 
3 | C[C@@H]1CNC[C@H](C)[C@@]1(O)c1ccc(-c2ccnc3[nH]cc(F)c23)cc1C(F)(F)F [Compound 11, (3S,4s,5R)-4-(4-(3-fluoro-1H-pyrrolo[2,3-b]pyridin-4-yl)-2-(trifluoromethyl)phenyl)-3,5-dimethylpiperidin-4-ol] | 11.1 | 143 | 10.7 |  |  | 
4 | COC(=O)c1c[nH]c2nccc(-c3ccc(CN)c(Cl)c3)c12 [Compound 216, methyl 4-(4-(aminomethyl)-3-chlorophenyl)-1H-pyrrolo[2,3-b]pyridine-3-carboxylate] | 11 | 823 | 19 |  |  | 
5 | NCc1ccc(-c2ccnc3[nH]ccc23)cc1F [Compound 270, (2-fluoro-4-(1H-pyrrolo[2,3-b]pyridin-4-yl)phenyl) methanamine] | 28 | 874 | 34 |  |  | 
6 | NCc1ccc(-c2ccnc3[nH]ccc23)nc1 [Compound 218, (6-(1H-pyrrolo[2,3-b]pyridin-4-yl)pyridin-3-yl)methanamine] | 37 | 4930 | 130 |  |  | 
7 | CN[C@@H](C)C(=O)N1C[C@@H](C)[C@](O)(c2c(C)cc(-c3ccnc4[nH]cc(F)c34)cc2F)[C@@H](C)C1 [Compound 315, (S)-1-((3S,4R,5R)-4-(2-fluoro-4-(3-fluoro-1H-pyrrolo[2,3-b]pyridin-4-yl)-6-methylphenyl)-4-hydroxy-3,5-dimethylpiperidin-1-yl)-2-(methylamino) propan-1-one] | 11.6 | 1350 | 5.7 |  |  | 
8 | O=C1NCCc2cc(-c3ccnc4[nH]ccc34)ccc21 [Compound 260, 6-(1H-pyrrolo[2,3-b]pyridin-4-yl)-3,4-dihydroisoquinol in-1(2H)-one] | 87 | 6600 | 52 |  |  | 
9 | O=C(NCC(O)(c1ccc(Cl)cc1)c1ccc(-c2ccnc3[nH]ccc23)cc1)[C@@H]1CCCN1 (stereo partly drawn) [Compound 1023, (2S)—N-(2-(4-(1H-pyrrolo[2,3-b]pyridin-4-yl)phenyl)-2-(4-chlorophenyl)-2-hydroxyethyl)pyrrolidine-2-carboxamide] |  |  |  | 3.4 | 9.2 | 4.6
10 | Cc1cc(-c2ccnc3[nH]cc(F)c23)cc(F)c1[C@@]1(O)[C@H](C)CN(C(=O)CN(C)C)C[C@@H]1C [Compound 71, 2-(dimethylamino)-1-((3S,4s,5R)-4-(2-fluoro-4-(3-fluoro-1H-pyrrolo[2,3-b]pyridin-4-yl)-6-methylphenyl)-4-hydroxy-3,5-dimethylpiperid-1-yl)ethan-1-one] | 11.3 | 939 | 3.7 |  |  | 
11 | c1ccc(-c2cc(-c3ccnc4[nH]ccc34)ccc2C2CCNCC2)cc1 [Compound 153, 4-(6-(piperidin-4-yl)-[1,1′-biphenyl]-3-yl)-1H-pyrrolo[2,3-b]pyridine] | 15.2 | 378 | 20.4 |  |  | 
12 | Cc1cc2c(-c3ccc(CN)cc3)ccnc2[nH]1 [Compound 251, (4-(2-methyl-1H-pyrrolo[2,3-b]pyridin-4-yl)phenyl) methanamine] | 893 | > 10000 | 389 |  |  | 
13 | Cc1cc(-c2ccnc3[nH]cc(F)c23)ncc1[C@@]1(O)[C@H](C)CN(C)C[C@@H]1C [Compound 44, (3R,4s,5S)-4-(6-(3-fluoro-1H-pyrrolo[2,3-b]pyridin-4-yl)-4-methylpyridin-3-yl)-1,3,5-trimethylpiperidin-4-ol] | 8.9 | 1610 | 19.6 |  |  | 

The next lines start with the values.

Row | IC50 (LATS1; [1]) [nM] | IC50 (AKT; [1]) [nM] | IC50 (LATS2; [1]) [nM] | IC50 (LATS1; [2]) [nM] | IC50 (AKT; [2]) [nM] | IC50 (LATS2; [2]) [nM] | Compound
14 | 7.7 | 1080 | 17.8 |  |  |  | NCC(=O)N1CCC(c2ccc(-c3ccnc4[nH]cc(F)c34)cc2Cl)CC1 [Compound 148, 2-amino-1-(4-(2-chloro-4-(3-fluoro-1H-pyrrolo[2,3-b]pyridin-4-yl)phenyl)piperidin-1-yl)ethan-1-one]
15 | 174 | 8520 | 139 |  |  |  | CN(C)CCS(=O)(=O)N1CCC(c2ccc(-c3ccnc4[nH]cc(F)c34)cc2Cl)CC1 [Compound 159, 2-((4-(2-chloro-4-(3-fluoro-1H-pyrrolo[2,3-b]pyridin-4-yl)phenyl)piperidin-1-yl)sulfonyl)-N,N-dimethylethan-1-amine]
16 | 3.2 | 63.5 | 2.9 |  |  |  | Cc1cc(-c2ccnc3[nH]cc(F)c23)ccc1[C@@]1(O)[C@H](C)CN(C)C[C@@H]1C [Compound 43, (3R,4s,5S)-4-(4-(3-fluoro-1H-pyrrolo[2,3-b]pyridin-4-yl)-2-methylphenyl)-1,3,5-trimethylpiperidin-4-ol]
17 | > 10000 | > 10000 | > 10000 |  |  |  | CCOCCS(=O)(=O)N1CCC(c2ccc(-c3ccnc4[nH]cc(F)c34)cc2Cl)CC1 [Compound 164, 4-(3-chloro-4-(1-((2-ethoxyethyl)sulfonyl)piperidin-4-yl)phenyl)-3-fluoro-1H-pyrrolo[2,3-b]pyridine]
18 | 3 | 374 | 3.6 |  |  |  | C[C@@H]1CN(C(CF)CF)C[C@H](C)C1(O)c1ccc(-c2ccnc3[nH]cc(F)c23)cc1Cl (stereo partly drawn) [Compound 53, (3S,5R)-4-(2-chloro-4-(3-fluoro-1H-pyrrolo[2,3-b]pyridin-4-yl)phenyl)-1-(1,3-difluoropropan-2-yl)-3,5-dimethylpiperidin-4-ol]
19 | > 10000 | > 10000 | > 10000 |  |  |  | O=S(=O)(CCC1CC1)N1CCC(c2ccc(-c3ccnc4[nH]cc(F)c34)cc2Cl)CC1 [Compound 163, 4-(3-chloro-4-(1-((2-cyclopropylethyl)sulfonyl)piperidin-4-yl)phenyl)-3-fluoro-1H-pyrrolo[2,3-b]pyridine]
